From article PMC6270973, “Two New Phenolic Compounds from the Heartwood of Caesalpinia sappan L” (Molecules, 2013)

system: not listed separately; assay: Cytotoxicity (cell viability) by MTT assay; settings: mouse, BV-2 microglia cells, Viability (at 50 µM, %), compound at 50 µM
Experimental: (§1) Each compound was dissolved in DMSO and further diluted in the medium to produce different concentrations with a maximum concentration of 50 μM. The absorbance was measured at 570 nm with a Multilabel Plate Reader (Sunrise TECAN, Männedorf, Switzerland). Cytotoxicity was determined with the MTT assay. Quercetin (Sigma-Aldrich, Foster City, CA, USA) was used as the positive control.

Compound | viability at 50 µM
O=C1C=CC23CC(O)(COC2=C1)Cc1cc(O)c(O)cc13 (stereo not drawn) [Compound 2, 7,10,11-trihydroxydracaenone] | 99.3%
CO[C@H]1[C@]2(O)COC3=CC(=O)C=C[C@@]31c1cc(O)c(O)cc1C2 [Compound 1, epicaesalpin J] | 96.5%
O=c1c2cc(O)ccc2oc2cccc(O)c12 [Compound 6, 1,7-dihydroxyxanthone] | 102%
O=C1/C(=C/c2ccc(O)c(O)c2)COc2cc(O)ccc21 [Compound 8, sappanone A] | 99.3%
O=C(/C=C/c1ccc(O)c(O)c1)c1ccc(O)cc1O [Compound 7, butein] | 94%
O=c1c2cccc(O)c2oc2cccc(O)c12 [Compound 5, 1,5-dihydroxyxanthone] | 101%

system: BV-2 microglia; assay: Cytotoxicity (cell viability) by MTT assay; settings: compound at 50 µM, 50 µM
Experimental: as §1

Compound | Viability (at 50 µM, %)
CO[C@H]1[C@]2(O)COC3=CC(=O)C=C[C@@]31c1cc(O)c(O)cc1C2 [Compound 3, caesalpin J] | 96.13%

system: nitric oxide production in LPS-activated BV-2 microglia; assay: Inhibition of NO production in LPS-stimulated BV-2 microglia; format: cell-based; settings: LPS-activated BV-2 microglia; IC50 values lower than those of quercetin, the positive control
Experimental: Two new compounds and six known compounds caesalpin J (3), 1-hydroxy-7-methylxanthone (4), 1,5-dihydroxyxanthone (5), 1,7-dihydroxyxanthone (6), butein (7), and sappanone A (8) were evaluated for their inhibitory activities against nitric oxide production in LPS-activated BV-2 microglia according to a previously described method.
Cytotoxicity was determined with the MTT assay.

Compound | inhibitory activity against nitric oxide production (in words)
1-hydroxy-7-methylxanthone [Compound 4] | obvious inhibitory activity
O=c1c2cc(O)ccc2oc2cccc(O)c12 [Compound 6, 1,7-dihydroxyxanthone] | obvious inhibitory activity
O=C1/C(=C/c2ccc(O)c(O)c2)COc2cc(O)ccc21 [Compound 8, sappanone A] | obvious inhibitory activity
O=C(/C=C/c1ccc(O)c(O)c1)c1ccc(O)cc1O [Compound 7, butein] | obvious inhibitory activity

same assay, conditions: LPS-activated BV-2 microglia; maximum concentration tested 50 μM; read-out: IC50 (µM), inhibition of NO production

Compound | IC50
1-hydroxy-7-methylxanthone [Compound 4] | 14.2 µM
CO[C@H]1[C@]2(O)COC3=CC(=O)C=C[C@@]31c1cc(O)c(O)cc1C2 [Compound 3, caesalpin J] | 45.9 µM

same assay, conditions: Mus musculus, BV-2, LPS-activated BV-2 microglia; maximum concentration tested 50 μM; read-out: IC50 (µM), inhibition of NO production

Compound | IC50
O=C1C=CC23CC(O)(COC2=C1)Cc1cc(O)c(O)cc13 (stereo not drawn) [Compound 2, 7,10,11-trihydroxydracaenone] | 56.7 µM
CO[C@H]1[C@]2(O)COC3=CC(=O)C=C[C@@]31c1cc(O)c(O)cc1C2 [Compound 1, epicaesalpin J] | 52.6 µM
O=c1c(O)c(-c2ccc(O)c(O)c2)oc2cc(O)cc(O)c12 [quercetin, reference compound] | 23.4 µM
O=C1/C(=C/c2ccc(O)c(O)c2)COc2cc(O)ccc21 [Compound 8, sappanone A] | 8.26 µM
O=C(/C=C/c1ccc(O)c(O)c1)c1ccc(O)cc1O [Compound 7, butein] | 15.5 µM
O=c1c2cccc(O)c2oc2cccc(O)c12 [Compound 5, 1,5-dihydroxyxanthone] | 28.7 µM

same assay, conditions: Mus musculus, BV-2, read-out: IC50 (µM), inhibition of NO production

Compound | IC50
O=c1c2cc(O)ccc2oc2cccc(O)c12 [Compound 6, 1,7-dihydroxyxanthone] | 21.5 µM

system: BV-2 microglia; assay: not given; settings: not given

Compound | Viability (at 50 µM, %)
1-hydroxy-7-methylxanthone [Compound 4] | 98.94%
